Laboratory results from patent US20240254129A1, “HETEROCYCLIC COMPOUNDS AND USES THEREOF” (Kumquat Biosciences Inc., priority 2021, published 2024).
Where two headings read alike, the source gives them in different places.

How the values were obtained:
[1] = biological target: GST-tagged K-Ras mutant / His-tagged hSOS1 (Homo sapiens, UniProt P01116); experiment: HTRF assay, K-Ras mutant / SOS1 interaction; format: binding; settings: read-out: IC50 against mutant Kras
Outline: (§1)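 Tagged proteins: GST-K-Ras (wt or mutant), His-hSOS1; labels anti-GST-Eu/anti-6His-XL665; HEPES pH 7.4 buffer with DTT, BSA, Igepal. Read ≥10 min post-mix at ex 337 nm; IC50 from ratiometric data, duplicates.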

wildtype Kras / hSOS1 = biological target: T1, wildtype Kras / hSOS1 (Homo sapiens, UniProt P01116); experiment: HTRF assay, wildtype Kras / SOS1 interaction; format: binding; settings: read-out: IC50 against wildtype Kras
T1 construct: made in house; host or cells: E. coli BL21 (DE3)
T1 sequence (P01116 1-188 isoform P01116-2): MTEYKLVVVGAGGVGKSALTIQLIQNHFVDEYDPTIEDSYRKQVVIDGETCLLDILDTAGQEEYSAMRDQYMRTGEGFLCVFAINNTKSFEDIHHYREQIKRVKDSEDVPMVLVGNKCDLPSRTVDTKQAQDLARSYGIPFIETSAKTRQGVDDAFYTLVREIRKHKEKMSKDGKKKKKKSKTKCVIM
Outline: as §1

[2] = compound nos. 102-196, general methodology of example 5
[3] = compound nos. 201-213, general methodology of example 5

Chain of GST-tagged K-Ras mutant / His-tagged hSOS1 (P01116 whole entry G12D, form open): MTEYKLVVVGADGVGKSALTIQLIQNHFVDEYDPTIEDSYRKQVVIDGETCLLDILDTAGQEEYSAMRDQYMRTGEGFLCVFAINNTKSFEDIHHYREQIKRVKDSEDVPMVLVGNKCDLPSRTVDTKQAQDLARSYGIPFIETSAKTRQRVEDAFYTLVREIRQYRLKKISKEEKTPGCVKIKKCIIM

Row | Structure (SMILES) | IC50 ([1]; compound nos. 401-703) [nM] | IC50 (wildtype Kras / hSOS1; compound nos. 401-703) [nM] | also measured
1 | N#CCCc1cc2c(N3CC4CCC(C3)N4)nc(OC[C@@]34CCCN3C[C@H](F)C4)nc2c(F)c1-c1cc(O)cc2ccccc12 [Compound 595, 3-(4-(3,8-diazabicyclo-[3.2.1]octan-3-yl)-8-fluoro-2-(((2R,7aS)-2-fluorotetra-hydro-1H-pyrrolizin-7a(5H)-yl)methoxy)-7-(3-hydroxynaphthalen-1-yl)-quinazolin-6-yl)propane-nitrile] | < 500 | > 500 | 
2 | Fc1c(-c2cccc3[nH]ncc23)ccc2c(N3CC4CCC(C3)N4)nc(OC[C@@]34CCCN3C[C@H](F)C4)nc12 [Compound 654, 4-(3,8-diazabicyclo[3.2.1]-octan-3-yl)-8-fluoro-2-(((2R,7aS)-2-fluorotetra-hydro-1H-pyrrolizin-7a(5H)-yl)methoxy)-7-(1H-indazol-4-yl)quinazoline] | > 500 | > 500 | 
3 | Nc1nc2c(-c3c(Cl)cc4c(N5CC6CCCC5CN6)nc(OC[C@@]56CCCN5C[C@H](F)C6)nc4c3F)ccc(F)c2s1 (stereo partly drawn) [Compound 685, 4-(4-(6,8-diazabicyclo-[3.2.2]nonan-6-yl)-6-chloro-8-fluoro-2-(((2R,7aS)-2-fluorotetrahydro-1H-pyrrol-izin-7a(5H)-yl)methoxy)-quinazolin-7-yl)-7-fluoro-benzo[d]thiazol-2-amine] | < 500 | > 500 | 
4 | Nc1nc2c(-c3c(Cl)cc4c(N5C6CCCC5CNC6)nc(OC[C@@]56CCCN5C[C@H](F)C6)nc4c3F)ccc(F)c2s1 [Compound 302, 4-(4-(3,9-diazabicyclo-[3.3.1]nonan-9-yl)-6-chloro-8-fluoro-2-(((2R,7aS)-2-fluorotetrahydro-1H-pyrrolizin-7a(5H)-yl)meth-oxy)quinazolin-7-yl)-7-fluorobenzo[d]thiazol-2-amine] |  |  | IC50 ([1]; compound nos. 301-306): < 1500 nM; IC50 (wildtype Kras / hSOS1; compound nos. 301-306): < 1500 nM
5 | Nc1nc2c(-c3c(Cl)cc4c(N5CC6CCC(C5)N6)nc(OC[C@@]56CCCN5C[C@H](F)C6)nc4c3F)cc(Cl)cc2s1 [Compound 601, 4-(4-(3,8-diazabicyclo-[3.2.1]octan-3-yl)-6-chloro-8-fluoro-2-(((2R,7aS)-2-fluorotetrahydro-1H-pyrrol-izin-7a(5H)-yl)methoxy)-quinazolin-7-yl)-6-chloro-benzo[d]thiazol-2-amine] | < 500 | > 500 | 
6 | Nc1nc2c(-c3c(Cl)cc4c(N5CCC[C@H](N)CC5)nc(OC[C@@]56CCCN5C[C@H](F)C6)nc4c3F)ccc(F)c2s1 [Compound 600, 4-(4-((S)-4-aminoazepan-1-yl)-6-chloro-8-fluoro-2-(((2R,7aS)-2-fluorotetra-hydro-1H-pyrrolizin-7a(5H)-yl)methoxy)quinazolin-7-yl)-7-fluorobenzo[d]thiazol-2-amine] | < 500 | > 500 | 
7 | CN1CCCC1CCn1nc(N2CC3CCC(C2)N3)c2ccc(-c3ccc(F)c4sc(N)nc34)c(F)c2c1=O (stereo not drawn) [Compound 420, 7-(2-amino-7-fluorobenzo-[d]thiazol-4-yl)-4-(3,8-diazabicyclo[3.2.1]octan-3-yl)-8-fluoro-2-(2-(1-methyl-pyrrolidin-2-yl)ethyl)phthal-azin-1(2H)-one] | > 500 | < 500 | 
8 | N#Cc1c(N)sc2c(F)ccc(-c3c(Cl)cc4c(N5CCCNCC5)nc(OC[C@@]56CCCN5C[C@H](F)C6)nc4c3F)c12 [Compound 557, 2-amino-4-(6-chloro-4-(1,4-diazepan-1-yl)-8-fluoro-2-(((2R,7aS)-2-fluorotetra-hydro-1H-pyrrolizin-7a(5H)-yl)methoxy)quinazolin-7-yl)-7-fluorobenzo[b]thio-phene-3-carbonitrile] | < 500 | > 500 | 
9 | Nc1nc2c(-c3c(Cl)cc4c(N5CCNC(=O)CC5)nc(OC[C@@]56CCCN5C[C@H](F)C6)nc4c3F)ccc(F)c2s1 [Compound 604, 1-(7-(2-amino-7-fluoroben-zo[d]thiazol-4-yl)-6-chloro-8-fluoro-2-(((2R,7aS)-2-fluorotetrahydro-1H-pyrrol-izin-7a(5H)-yl)methoxy)-quinazolin-4-yl)-1,4-diazepan-5-one] | < 500 | > 500 | 
10 | Nc1nc2c(-c3c(Cl)cc4c(N5[C@@H]6CCC[C@H]5C[C@H](O)C6)nc(OC[C@@]56CCCN5C[C@H](F)C6)nc4c3F)ccc(F)c2s1 [Compound 305, (1R,3R,5S)-9-(7-(2-amino-7-fluorobenzo[d]thiazol-4-yl)-6-chloro-8-fluoro-2-(((2R,7aS)-2-fluorotetra-hydro-1H-pyrrolizin-7a(5H)-yl)methoxy)quinazolin-4-yl)-9-azabicyclo[3.3.1]-nonan-3-ol] |  |  | IC50 ([1]; compound nos. 301-306): < 1500 nM; IC50 (wildtype Kras / hSOS1; compound nos. 301-306): < 1500 nM
11 | CN1CCC(COc2nc(N3CCNCC(F)(F)C3)c3cc(Cl)c(-c4cccc5sc(N)nc45)c(F)c3n2)CC1 [Compound 134, 4-(6-chloro-4-(6,6-difluoro-1,4-diazepan-1-yl)-8-fluoro-2-((1-methylpiperidin-4-yl)-methoxy)quinazolin-7-yl)-benzo[d]thiazol-2-amine] |  |  | IC50 [1, 2]: > 500 nM; IC50 (wildtype Kras / hSOS1; [2]): < 500 nM
12 | CN1CCC[C@H]1COc1nc(N2CCCS(=O)(=O)CC2)c2cc(Cl)c(-c3cccc4sc(N)nc34)c(F)c2n1 [Compound 475, 4-(7-(2-aminobenzo[d]-thiazol-4-yl)-6-chloro-8-fluoro-2-(((S)-1-methyl-pyrrolidin-2-yl)methoxy)-quinazolin-4-yl)-1,4-thiazepane 1,1-dioxide] | < 500 | < 500 | 
13 | Fc1c(-c2cccc3c2CCCC3)c(Cl)cc2c(N3CC4CCC(C3)N4)nc(OC[C@@]34CCCN3C[C@H](F)C4)nc12 [Compound 619, 4-(3,8-diazabicyclo[3.2.1]-octan-3-yl)-6-chloro-8-fluoro-2-(((2R,7aS)-2-fluorotetrahydro-1H-pyrrol-izin-7a(5H)-yl)methoxy)-7-(5,6,7,8-tetrahydronaph-thalen-1-yl)quinazoline] | > 500 | > 500 | 
14 | N#Cc1c(N)sc2c(F)ccc(-c3c(Cl)cc4c(N5CCCC6(CCNC6)C5)nc(OC[C@@]56CCCN5C[C@H](F)C6)nc4c3F)c12 (stereo partly drawn) [Compound 592, 2-amino-4-(6-chloro-8-fluoro-2-(((2R,7aS)-2-fluorotetrahydro-1H-pyrrol-izin-7a(5H)-yl)methoxy)-4-(2,7-diazaspiro[4.5]decan-7-yl)quinazolin-7-yl)-7-fluorobenzo[b]thiophene-3-carbonitrile] | < 500 | > 500 | 
15 | CN(C)CC1CN(c2nc(OCC34CCCN3CCC4)nc3c(F)c(-c4ccc(F)c5sc(N)nc45)c(Cl)cc23)CCCO1 (stereo not drawn) [Compound 681, 4-(6-chloro-4-(2-((dimethyl-amino)methyl)-1,4-oxaze-pan-4-yl)-8-fluoro-2-((tetra-hydro-1H-pyrrolizin-7a(5H)-yl)methoxy)quinazolin-7-yl)-7-fluorobenzo[d]thiazol-2-amine] | < 500 | > 500 | 
16 | N#CC1COCCN(c2nc(OCC34CCCN3C[C@H](F)C4)nc3c(F)c(-c4ccc(F)c5sc(N)nc45)c(Cl)cc23)C1 (stereo partly drawn) [Compound 513, 4-(7-(2-amino-7-fluoroben-zo[d]thiazol-4-yl)-6-chloro-8-fluoro-2-(((2R)-2-fluoro-tetrahydro-1H-pyrrolizin-7a(5H)-yl)methoxy)quin-azolin-4-yl)-1,4-oxazepane-6-carbonitrile] | < 500 | > 500 | 
17 | Nc1nc2c(-c3c(Cl)cc4c(N5CC6CCC(C5)O6)nc(OC[C@@]56CCCN5C[C@H](F)C6)nc4c3F)ccc(F)c2s1 [Compound 203, 4-(4-(8-oxa-3-azabicyclo[3.2.1]octan-3-yl)-6-chloro-8-fluoro-2-(((2R,7aS)-2-fluorohexahydro-1H-pyrrolizin-7a-yl)methoxy)quinazolin-7-yl)-7-fluorobenzo[d]thiazol-2-amine] |  |  | IC50 [1, 3]: < 1500 nM; IC50 (wildtype Kras / hSOS1; [3]): < 1500 nM
18 | CN1CCC[C@H]1COc1nc(N2CC3CNC(C3)C2)c2cc(Cl)c(-c3cccc4sc(N)nc34)c(F)c2n1 (stereo partly drawn) [Compound 137, 4-(4-(3,6-diazabicyclo-[3.2.1]octan-3-yl)-6-chloro-8-fluoro-2-(((S)-1-methyl-pyrrolidin-2-yl)methoxy)-quinazolin-7-yl)benzo[d]-thiazol-2-amine] |  |  | IC50 [1, 2]: > 500 nM; IC50 (wildtype Kras / hSOS1; [2]): > 500 nM
19 | Nc1nc2c(-c3c(Cl)cc4c(N5CCNCC(O)C5)nc(OCC56CCCN5C[C@H](F)C6)nc4c3F)ccc(F)c2s1 (stereo partly drawn) [Compound 162, 1-(7-(2-amino-7-fluoro-benzo[d]thiazol-4-yl)-6-chloro-8-fluoro-2-(((2R)-2-fluorotetrahydro-1H-pyrrol-izin-7a(5H)-yl)methoxy)-quinazolin-4-yl)-1,4-diazepan-6-ol] |  |  | IC50 [1, 2]: < 500 nM; IC50 (wildtype Kras / hSOS1; [2]): < 500 nM
20 | Nc1ccc(-c2ccccc2-c2c(Cl)cc3c(N4CCCCCC4)nc(OCC45CCCN4CCC5)nc3c2F)cc1 [Compound 450, 2′-(4-(azepan-1-yl)-6-chloro-8-fluoro-2-((tetrahydro-1H-pyrrolizin-7a(5H)-yl)meth-oxy)quinazolin-7-yl)-[1,1′-biphenyl]-4-amine] | > 500 | < 500 | 
21 | Nc1nc2c(-c3cc4ncnc(N5CC6CCC(C5)N6)c4cc3Cl)ccc(F)c2s1 [Compound 635, 4-(4-(3,8-diazabicyclo-[3.2.1]octan-3-yl)-6-chloro-quinazolin-7-yl)-7-fluoro-benzo[d]thiazol-2-amine] | > 500 | > 500 | 
